Values of other authors in patent US20040209344A1, “Crystal structure of angiotensin-converting enzyme-related carboxypeptidase” (priority 2002, published 2004).
“Also recorded” adds a separate entry of the source. Like-named read-outs stand apart in the source and are kept apart here.

Experiments:
ACE2 [1] = target: T1, ACE2 (Homo sapiens, UniProt Q9BYF1)
Target sequence in this assay (Q9BYF1 18-805): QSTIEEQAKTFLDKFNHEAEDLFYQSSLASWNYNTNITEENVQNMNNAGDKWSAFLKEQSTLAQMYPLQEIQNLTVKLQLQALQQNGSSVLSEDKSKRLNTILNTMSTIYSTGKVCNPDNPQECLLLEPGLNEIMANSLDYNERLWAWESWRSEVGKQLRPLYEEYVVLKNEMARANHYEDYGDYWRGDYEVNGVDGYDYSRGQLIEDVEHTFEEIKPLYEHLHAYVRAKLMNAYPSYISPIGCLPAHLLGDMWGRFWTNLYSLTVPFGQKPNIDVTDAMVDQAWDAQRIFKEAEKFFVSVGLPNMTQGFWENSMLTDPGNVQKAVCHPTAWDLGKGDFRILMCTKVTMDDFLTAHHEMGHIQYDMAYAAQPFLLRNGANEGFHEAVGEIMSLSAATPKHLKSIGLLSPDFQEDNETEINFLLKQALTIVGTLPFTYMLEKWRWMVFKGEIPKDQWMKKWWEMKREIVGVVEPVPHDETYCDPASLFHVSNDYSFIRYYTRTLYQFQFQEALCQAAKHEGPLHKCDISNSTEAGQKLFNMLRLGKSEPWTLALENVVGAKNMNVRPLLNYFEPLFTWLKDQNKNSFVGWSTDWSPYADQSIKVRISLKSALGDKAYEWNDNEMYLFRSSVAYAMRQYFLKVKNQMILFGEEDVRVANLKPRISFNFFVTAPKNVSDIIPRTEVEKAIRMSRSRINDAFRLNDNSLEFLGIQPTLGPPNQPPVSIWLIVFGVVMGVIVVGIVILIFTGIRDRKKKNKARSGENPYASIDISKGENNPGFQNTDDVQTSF

[2] = target: somatic ACE D991 to E mutant (Homo sapiens, UniProt P12821, D1020E); conditions: mutation of D991 to E in somatic ACE; Williams et al.
somatic ACE D991 to E mutant, sequence (P12821 30-1306 D1020E): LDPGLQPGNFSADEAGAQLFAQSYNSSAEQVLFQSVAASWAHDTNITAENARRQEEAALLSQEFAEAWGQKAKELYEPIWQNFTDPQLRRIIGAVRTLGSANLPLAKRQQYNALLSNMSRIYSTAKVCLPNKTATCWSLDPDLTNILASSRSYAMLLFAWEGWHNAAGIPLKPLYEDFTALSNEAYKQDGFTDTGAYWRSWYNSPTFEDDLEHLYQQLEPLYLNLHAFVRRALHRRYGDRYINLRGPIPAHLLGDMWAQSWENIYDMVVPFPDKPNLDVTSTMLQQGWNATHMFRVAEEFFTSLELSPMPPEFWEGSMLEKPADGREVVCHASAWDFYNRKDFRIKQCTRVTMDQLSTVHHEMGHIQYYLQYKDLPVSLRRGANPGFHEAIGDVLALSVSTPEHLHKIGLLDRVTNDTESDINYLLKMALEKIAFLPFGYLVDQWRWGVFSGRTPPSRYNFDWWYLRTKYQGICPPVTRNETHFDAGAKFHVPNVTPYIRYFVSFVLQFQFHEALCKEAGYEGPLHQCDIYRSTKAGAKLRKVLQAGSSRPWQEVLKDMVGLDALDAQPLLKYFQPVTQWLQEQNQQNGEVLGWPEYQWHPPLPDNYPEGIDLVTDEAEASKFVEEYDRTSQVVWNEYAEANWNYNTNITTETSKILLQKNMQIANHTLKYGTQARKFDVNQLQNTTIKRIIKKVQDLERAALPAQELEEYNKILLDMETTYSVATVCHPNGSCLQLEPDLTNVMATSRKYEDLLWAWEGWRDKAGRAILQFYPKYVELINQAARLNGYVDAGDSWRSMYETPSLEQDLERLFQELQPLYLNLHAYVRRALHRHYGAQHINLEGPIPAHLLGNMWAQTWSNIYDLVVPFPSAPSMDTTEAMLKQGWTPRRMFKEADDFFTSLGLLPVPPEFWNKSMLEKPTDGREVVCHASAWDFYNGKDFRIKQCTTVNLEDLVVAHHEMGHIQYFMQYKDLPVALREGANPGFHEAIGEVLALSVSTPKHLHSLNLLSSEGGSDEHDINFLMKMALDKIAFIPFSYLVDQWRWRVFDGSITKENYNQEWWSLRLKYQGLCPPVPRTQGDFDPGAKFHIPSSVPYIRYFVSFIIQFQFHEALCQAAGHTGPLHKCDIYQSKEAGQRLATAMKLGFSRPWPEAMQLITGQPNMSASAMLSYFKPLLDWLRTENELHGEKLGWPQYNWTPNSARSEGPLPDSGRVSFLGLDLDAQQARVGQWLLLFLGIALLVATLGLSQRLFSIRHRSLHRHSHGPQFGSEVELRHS

ACE2 [3] = target: T1, ACE2; design: made in house; host or cells: SF9 insect cells, baculovirus (pBac Pak9 vector), secreted into the culture supernatant; conditions: Tipnis et al.
Target sequence in this assay (Q9BYF1 19-740): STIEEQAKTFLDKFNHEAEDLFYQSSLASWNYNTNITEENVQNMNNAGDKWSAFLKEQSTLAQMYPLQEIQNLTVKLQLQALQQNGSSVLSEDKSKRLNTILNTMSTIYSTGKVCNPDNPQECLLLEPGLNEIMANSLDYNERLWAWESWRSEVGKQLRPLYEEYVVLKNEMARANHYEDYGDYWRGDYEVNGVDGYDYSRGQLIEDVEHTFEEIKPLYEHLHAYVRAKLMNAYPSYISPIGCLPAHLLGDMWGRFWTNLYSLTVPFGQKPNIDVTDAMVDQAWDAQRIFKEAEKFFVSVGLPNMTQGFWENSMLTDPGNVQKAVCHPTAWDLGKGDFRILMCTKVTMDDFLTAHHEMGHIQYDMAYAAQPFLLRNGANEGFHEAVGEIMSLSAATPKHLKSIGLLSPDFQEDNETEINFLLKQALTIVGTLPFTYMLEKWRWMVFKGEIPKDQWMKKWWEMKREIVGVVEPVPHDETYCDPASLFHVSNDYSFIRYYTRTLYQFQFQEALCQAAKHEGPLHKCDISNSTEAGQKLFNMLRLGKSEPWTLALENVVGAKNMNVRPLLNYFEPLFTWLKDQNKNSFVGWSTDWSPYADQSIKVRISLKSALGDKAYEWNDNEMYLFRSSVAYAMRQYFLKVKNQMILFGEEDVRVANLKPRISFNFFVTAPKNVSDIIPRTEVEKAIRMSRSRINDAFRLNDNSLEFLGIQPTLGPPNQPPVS

Apelin 13
activity as peptide substrate for ACE2 (ACE2 [1]): best in vitro peptide substrates

Leu-enkephalin: peptide YGGFL; SEQ ID NO: 8
activity as peptide substrate for ACE2 (ACE2 [1]; Vickers et al.): inactive

des-Arg^9 bradykinin
activity as peptide substrate for ACE2 (ACE2 [1]; Vickers et al.): best in vitro peptide substrates

C[C@H](N[C@@H](CCc1ccccc1)C(=O)O)C(=O)N1[C@H](C(=O)O)C[C@H]2CCCC[C@@H]21 [trandolaprilat]
decrease in affinity for the inhibitor [2]: about 8 fold

Dynorphin A 1-13
activity as peptide substrate for ACE2 (ACE2 [1]; Vickers et al.): best in vitro peptide substrates

C[C@H](CS)C(=O)N1CCC[C@H]1C(=O)O [captopril]
inhibition of ACE2 by ACE inhibitors (ACE2 [3]): did not inhibit; also recorded: not active

Met-enkephalin: peptide YGGFM; SEQ ID NO: 9
activity as peptide substrate for ACE2 (ACE2 [1]; Vickers et al.): inactive

Angiotensin 1-5: peptide DRVYI; SEQ ID NO: 10
activity as peptide substrate for ACE2 (ACE2 [1]; Vickers et al.): inactive

Angiotensin II: vasoconstrictor peptide DRVYIHPF; SEQ ID NO: 2
activity as peptide substrate for ACE2 (ACE2 [1]; Vickers et al.): best in vitro peptide substrates

Angiotensin 1-9: peptide DRVYIHPFH; SEQ ID NO: 3
activity as peptide substrate for ACE2 (ACE2 [1]; Vickers et al.): inactive
